Laboratory results as given in patent publication US11541050B2, “Pyrimidine derivatives for the treatment of viral infections” (JANSSEN SCIENCES IRELAND UC, priority 2011, dated 2023).

What was measured:
Type in all cases: cell-based
Design in all cases: unit not given here
[1] = biological target: T1, human TLR8 (wild type sequence) (Homo sapiens, UniProt Q9NR97); assay: TLR8 cellular NFκB-luc reporter assay, wild type TLR8; settings: lowest effective concentration, wild type TLR8 (compounds 1-73)
T1 construct: expressed in transfected cells; host or cells: HEK293
T1 sequence (Q9NR97 27-1041): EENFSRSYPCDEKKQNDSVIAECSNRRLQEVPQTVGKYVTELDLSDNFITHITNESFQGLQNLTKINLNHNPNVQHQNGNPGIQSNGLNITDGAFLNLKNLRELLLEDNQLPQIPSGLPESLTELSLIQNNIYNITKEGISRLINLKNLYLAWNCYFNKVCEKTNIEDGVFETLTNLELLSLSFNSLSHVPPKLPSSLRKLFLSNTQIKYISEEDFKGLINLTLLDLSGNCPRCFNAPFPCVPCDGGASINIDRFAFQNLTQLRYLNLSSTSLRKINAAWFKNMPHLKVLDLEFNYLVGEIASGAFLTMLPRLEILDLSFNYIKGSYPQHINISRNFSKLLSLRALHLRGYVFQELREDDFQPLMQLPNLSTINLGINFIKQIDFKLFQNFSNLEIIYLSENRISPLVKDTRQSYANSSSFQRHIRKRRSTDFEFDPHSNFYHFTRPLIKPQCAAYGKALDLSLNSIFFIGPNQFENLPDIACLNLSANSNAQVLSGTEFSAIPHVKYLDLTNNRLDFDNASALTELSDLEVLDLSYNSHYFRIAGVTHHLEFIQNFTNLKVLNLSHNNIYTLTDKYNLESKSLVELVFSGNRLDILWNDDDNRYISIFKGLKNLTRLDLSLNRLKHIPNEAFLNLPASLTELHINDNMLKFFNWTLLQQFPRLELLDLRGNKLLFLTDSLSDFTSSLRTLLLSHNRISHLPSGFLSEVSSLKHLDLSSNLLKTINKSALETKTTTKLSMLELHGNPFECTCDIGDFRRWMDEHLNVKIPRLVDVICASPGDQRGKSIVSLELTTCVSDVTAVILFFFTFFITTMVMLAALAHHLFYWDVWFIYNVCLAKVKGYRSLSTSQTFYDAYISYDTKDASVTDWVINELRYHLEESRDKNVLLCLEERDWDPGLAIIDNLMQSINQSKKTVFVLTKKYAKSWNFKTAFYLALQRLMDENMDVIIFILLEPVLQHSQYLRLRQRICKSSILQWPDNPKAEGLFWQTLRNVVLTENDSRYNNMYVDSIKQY
Method in brief: (§1)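 Luciferase signal read after 6 h compound incubation at 37 °C in HEK293 cells carrying transiently transfected TLR7 or TLR8 (wild type or LRR2-deletion) and NFκB-luc. Values are lowest effective concentrations from quadruplicate dose-response curves, effect ≥2-fold above assay SD.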

[2] = tested on: human TLR8 mutant sequence comprising a deletion in the second leucine-rich repeat; assay: TLR8 cellular NFκB-luc reporter assay, mutant TLR8 with deletion in the second leucine-rich repeat; settings: lowest effective concentration
Description: (§2) The ability of compounds to activate human TLR7 and/or TLR8 was assessed in a cellular reporter assay using HEK293 cells transiently transfected with a TLR7 or TLR8 expression vector and NFκB-luc reporter construct. In one instance the TLR expression construct expresses the respective wild type sequence or a mutant sequence comprising a deletion in the second leucine-rich repeat of the TLR.
(§3) Briefly, HEK293 cells were grown in culture medium (DMEM supplemented with 10% FCS and 2 mM Glutamine). For transfection of cells in 10 cm dishes, cells were detached with Trypsin-EDTA, transfected with a mix of CMV-TLR7 or TLR8 plasmid (750 ng), NFκB-luc plasmid (375 ng) and a transfection reagent and incubated for 48 hours at 37° C. in a humidified 5% CO2 atmosphere. […] Thirty microliters of cells were then dispensed into each well in 384-well plates, where 10 μL of compound in 4% DMSO was already present. Following 6 hours incubation at 37° C., 5% CO2, the luciferase activity was determined by adding 15 μl of Steady Lite Plus substrate (Perkin Elmer) to each well and readout performed on a ViewLux ultraHTS microplate imager (Perkin Elmer). Dose response curves were generated from measurements performed in quadruplicates.

[3] = tested on: human TLR7 mutant sequence comprising a deletion in the second leucine-rich repeat; assay: TLR7 cellular NFκB-luc reporter assay, mutant TLR7 with deletion in the second leucine-rich repeat; settings: lowest effective concentration
Description: as §2, §3

[4] = biological target: T2, human TLR7 (wild type sequence) (Homo sapiens, UniProt Q9NYK1); assay: TLR7 cellular NFκB-luc reporter assay, wild type TLR7; settings: lowest effective concentration, wild type TLR7
T2 construct: expressed in transfected cells; host or cells: HEK293
T2 sequence (Q9NYK1 27-1049): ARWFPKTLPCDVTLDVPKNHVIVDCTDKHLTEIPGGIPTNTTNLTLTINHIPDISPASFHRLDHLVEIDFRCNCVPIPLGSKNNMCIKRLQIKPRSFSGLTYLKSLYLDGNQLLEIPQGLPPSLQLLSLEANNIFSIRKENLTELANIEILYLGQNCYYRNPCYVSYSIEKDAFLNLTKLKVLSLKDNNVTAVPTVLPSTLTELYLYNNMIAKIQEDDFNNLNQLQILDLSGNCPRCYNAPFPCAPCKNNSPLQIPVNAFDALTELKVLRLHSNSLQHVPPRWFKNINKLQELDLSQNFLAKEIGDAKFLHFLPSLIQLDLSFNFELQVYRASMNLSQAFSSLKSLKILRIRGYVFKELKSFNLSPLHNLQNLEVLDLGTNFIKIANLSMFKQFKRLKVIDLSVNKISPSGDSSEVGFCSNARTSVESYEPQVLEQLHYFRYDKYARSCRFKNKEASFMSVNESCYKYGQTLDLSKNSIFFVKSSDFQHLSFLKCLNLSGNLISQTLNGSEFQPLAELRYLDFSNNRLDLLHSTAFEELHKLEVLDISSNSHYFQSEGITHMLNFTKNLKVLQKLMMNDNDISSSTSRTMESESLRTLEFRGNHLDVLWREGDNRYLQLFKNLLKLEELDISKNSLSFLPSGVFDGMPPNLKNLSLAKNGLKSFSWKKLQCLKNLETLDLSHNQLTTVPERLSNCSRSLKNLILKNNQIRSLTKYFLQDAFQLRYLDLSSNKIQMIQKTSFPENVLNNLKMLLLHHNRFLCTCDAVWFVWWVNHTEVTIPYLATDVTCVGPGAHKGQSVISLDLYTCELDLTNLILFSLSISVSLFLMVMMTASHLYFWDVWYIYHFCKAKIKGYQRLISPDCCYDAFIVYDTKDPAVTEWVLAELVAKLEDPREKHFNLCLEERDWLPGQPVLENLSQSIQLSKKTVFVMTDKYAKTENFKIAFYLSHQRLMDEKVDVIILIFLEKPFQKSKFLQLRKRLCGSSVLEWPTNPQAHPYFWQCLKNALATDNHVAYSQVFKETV
Method in brief: as §1

[5] = TLR8 mutant with deletion in second leucine-rich repeat
[6] = TLR7 mutant with deletion in second leucine-rich repeat

CCCCNc1nc(N)ncc1OCC1CC1 [Compound 39]
TLR8-wt_LEC [1]: 14.41 | TLR8-dIRR2_LEC [2, 5]: 7.10 | TLR7-dIRR2_LEC [3, 6]: 3.01

CCCCCCCCOc1cnc(N)nc1NCCCC [Compound 40]
TLR8-wt_LEC [1]: >25 | TLR8-dIRR2_LEC [2, 5]: >25 | TLR7-dIRR2_LEC [3, 6]: 2.69

CCCCNc1nc(N)ncc1OCCN1CCOCC1 [Compound 269]
TLR7-wt_LEC [4]: 24.550 | TLR8-dIRR2_LEC [2]: 9.750 | TLR7-dIRR2_LEC [3]: 8.280

CCC[C@@H](CCO)Nc1nc(N)ncc1OCc1cccc(C(N)=O)n1 [Compound 270]
TLR7-wt_LEC [4]: 0.109 | TLR8-dIRR2_LEC [2]: 0.006 | TLR7-dIRR2_LEC [3]: 0.131

CCC[C@@H](CCO)Nc1nc(N)ncc1OCc1cccnc1 [Compound 271]
TLR7-wt_LEC [4]: 0.261 | TLR8-dIRR2_LEC [2]: 0.088 | TLR7-dIRR2_LEC [3]: 0.511

CCCC[C@@H](CCO)Nc1nc(N)ncc1OCc1cccnc1 [Compound 272]
TLR7-wt_LEC [4]: 0.207 | TLR8-dIRR2_LEC [2]: 0.084 | TLR7-dIRR2_LEC [3]: 1.110

CCCC[C@@H](CO)Nc1nc(N)ncc1OCc1cccnc1 [Compound 274]
TLR7-wt_LEC [4]: 1.140 | TLR8-dIRR2_LEC [2]: 0.357 | TLR7-dIRR2_LEC [3]: 0.303

CCCCNc1nc(N)ncc1OCCOCC(F)(F)F [Compound 276]
TLR7-wt_LEC [4]: 3.260 | TLR8-dIRR2_LEC [2]: 0.652 | TLR7-dIRR2_LEC [3]: 0.707

CCC[C@@H](CO)Nc1nc(N)ncc1OCc1cccnn1 [Compound 277]
TLR7-wt_LEC [4]: 1.180 | TLR8-dIRR2_LEC [2]: 0.135 | TLR7-dIRR2_LEC [3]: 0.438

CCCC[C@@H](CO)Nc1nc(N)ncc1OCc1cccnn1 [Compound 278]
TLR7-wt_LEC [4]: 0.880 | TLR8-dIRR2_LEC [2]: 0.136 | TLR7-dIRR2_LEC [3]: 0.270

CCC[C@@H](CCO)Nc1nc(N)ncc1OCc1cccnn1 [Compound 279]
TLR7-wt_LEC [4]: 0.724 | TLR8-dIRR2_LEC [2]: 0.034 | TLR7-dIRR2_LEC [3]: 1.100

CCCC[C@@H](CCO)Nc1nc(N)ncc1OCc1cccnn1 [Compound 280]
TLR7-wt_LEC [4]: 0.392 | TLR8-dIRR2_LEC [2]: 0.038 | TLR7-dIRR2_LEC [3]: 1.450

CCCCNc1nc(N)ncc1OCc1ccc(CO)cc1 [Compound 281]
TLR7-wt_LEC [4]: 0.472 | TLR8-dIRR2_LEC [2]: 0.191 | TLR7-dIRR2_LEC [3]: 1.630

CCCC[C@@H](CCO)Nc1nc(N)ncc1OCc1cccc(C(N)=O)n1 [Compound 282]
TLR7-wt_LEC [4]: 0.133 | TLR8-dIRR2_LEC [2]: 0.005 | TLR7-dIRR2_LEC [3]: 0.502

CCC[C@@H](CCO)Nc1cc(O[C@@H]2CCc3c(Cl)ccnc32)nc(N)n1 [Compound 283]
TLR7-wt_LEC [4]: 17.180 | TLR8-dIRR2_LEC [2]: 4.350 | TLR7-dIRR2_LEC [3]: 8.320

CCC[C@@H](CCO)Nc1nc(N)ncc1O[C@H]1CCc2c(Cl)ccnc21 [Compound 284]
TLR7-wt_LEC [4]: 9.910 | TLR8-dIRR2_LEC [2]: 2.150 | TLR7-dIRR2_LEC [3]: 10.300

CCC[C@@H](CCO)Nc1nc(N)ncc1OCc1cn(-c2ccccc2)nn1 [Compound 285]
TLR7-wt_LEC [4]: 0.266 | TLR8-dIRR2_LEC [2]: 0.036 | TLR7-dIRR2_LEC [3]: 0.530

CCC[C@@H](CCO)Nc1nc(N)nc(C)c1OCc1nccc2ccccc12 [Compound 286]
TLR7-wt_LEC [4]: 0.620 | TLR8-dIRR2_LEC [2]: 0.128 | TLR7-dIRR2_LEC [3]: 7.660

CCCCNc1nc(N)ncc1OC[C@H](C)OC [Compound 287]
TLR7-wt_LEC [4]: 15.530 | TLR8-dIRR2_LEC [2]: 3.560 | TLR7-dIRR2_LEC [3]: 5.380

CCCCNc1nc(N)ncc1OCC(CC)OC (stereo not drawn) [Compound 288]
TLR7-wt_LEC [4]: >25 | TLR8-dIRR2_LEC [2]: 14.890 | TLR7-dIRR2_LEC [3]: 10.200

CCCCNc1nc(N)ncc1OCCOCC(C)C [Compound 289]
TLR7-wt_LEC [4]: 0.875 | TLR8-dIRR2_LEC [2]: 0.647 | TLR7-dIRR2_LEC [3]: 0.930

CCCCNc1nc(N)ncc1OCC(C)O (stereo not drawn) [Compound 290]
TLR7-wt_LEC [4]: >25 | TLR8-dIRR2_LEC [2]: 12.460 | TLR7-dIRR2_LEC [3]: 9.110

CCCC[C@@H](CCO)Nc1nc(N)ncc1OCc1ccncc1 [Compound 291]
TLR7-wt_LEC [4]: 0.120 | TLR8-dIRR2_LEC [2]: 0.106 | TLR7-dIRR2_LEC [3]: 0.407

CCC[C@@H](CCO)Nc1nc(N)ncc1OCc1ccccn1 [Compound 293]
TLR7-wt_LEC [4]: 0.197 | TLR8-dIRR2_LEC [2]: 0.088 | TLR7-dIRR2_LEC [3]: 0.530

CCCC[C@@H](CCO)Nc1nc(N)ncc1OCc1ccccn1 [Compound 294]
TLR7-wt_LEC [4]: 0.133 | TLR8-dIRR2_LEC [2]: 0.042 | TLR7-dIRR2_LEC [3]: 0.521

CCCC[C@@H](CCO)Nc1nc(N)ncc1OCc1cccc(C)n1 [Compound 295]
TLR7-wt_LEC [4]: 0.047 | TLR8-dIRR2_LEC [2]: 0.034 | TLR7-dIRR2_LEC [3]: 0.430

CCCC[C@@H](CCO)Nc1nc(N)ncc1OCCOC(C)C [Compound 296]
TLR7-wt_LEC [4]: 0.664 | TLR8-dIRR2_LEC [2]: 0.310 | TLR7-dIRR2_LEC [3]: 2.540

CCCC[C@@H](CCO)Nc1nc(N)ncc1OCc1nnn[nH]1 [Compound 297]
TLR7-wt_LEC [4]: 2.810 | TLR8-dIRR2_LEC [2]: 2.540 | TLR7-dIRR2_LEC [3]: >25

CCCC[C@@H](CCO)Nc1nc(N)ncc1OCc1c[nH]nn1 [Compound 298]
TLR7-wt_LEC [4]: 0.394 | TLR8-dIRR2_LEC [2]: 0.058 | TLR7-dIRR2_LEC [3]: 2.840

CCCC[C@@H](C[C@@H](C)O)Nc1nc(N)ncc1OC [Compound 300]
TLR7-wt_LEC [4]: 1.740 | TLR8-dIRR2_LEC [2]: 0.475 | TLR7-dIRR2_LEC [3]: 0.720

CCC[C@@H](CCO)Nc1nc(N)ncc1OCCOC(C)C [Compound 301]
TLR7-wt_LEC [4]: 1.170 | TLR8-dIRR2_LEC [2]: 0.534 | TLR7-dIRR2_LEC [3]: 2.640

CCC[C@@H](CCO)Nc1nc(N)ncc1OCc1ccncc1 [Compound 302]
TLR7-wt_LEC [4]: 0.385 | TLR8-dIRR2_LEC [2]: 0.070 | TLR7-dIRR2_LEC [3]: 0.487
